In assay [1] the target is T1, human orexin 2 receptor (Homo sapiens (Human), UniProt O43614). The assay is described as follows: Human orexin 2 receptor Ca2+ mobilization assay (FLIPR, PFSK cells, orexin B 100 nM). The following applies: modified Cheng-Prusoff correction, read-out: OR 2 Kb. In kind it is cell-based. Background: Calcium assays in cells follow changes in intracellular calcium, usually with a dye or a luminescent sensor.

Assay [2] addresses T1, human orexin 2 receptor. Description: Human orexin 2 receptor radioligand binding ([3H]EMPA competition, HEK293 cells). The settings on record: HEK293 cells expressing human orexin-2 receptor, read-out: OR 2 Ki.

Molecules are shown by their SMILES. pKi: −log10 of the molar value.

One may read the pKi as −log10 of the Ki, conventionally taken in molar units.

T1 sequence (O43614 whole entry): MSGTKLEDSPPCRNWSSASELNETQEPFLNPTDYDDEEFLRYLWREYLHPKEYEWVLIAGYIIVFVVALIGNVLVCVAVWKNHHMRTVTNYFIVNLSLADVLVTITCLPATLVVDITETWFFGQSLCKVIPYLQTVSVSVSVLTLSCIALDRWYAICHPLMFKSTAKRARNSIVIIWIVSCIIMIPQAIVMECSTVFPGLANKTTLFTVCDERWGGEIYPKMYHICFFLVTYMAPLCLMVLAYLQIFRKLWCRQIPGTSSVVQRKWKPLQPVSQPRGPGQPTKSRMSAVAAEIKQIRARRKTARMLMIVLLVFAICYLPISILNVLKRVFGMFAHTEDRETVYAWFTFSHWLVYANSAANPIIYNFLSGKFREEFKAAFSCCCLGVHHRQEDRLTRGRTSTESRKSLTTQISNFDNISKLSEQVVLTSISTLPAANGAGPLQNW

With `Cc1cc(C)nc(N2CC3CN(C(=O)c4cccc5c4-c4ccccc4C5)CC3C2)n1` (stereo not shown) [Example 326, 2-(4,6-Dimethylpyrimidin-2-yl)-5-(9H-fluoren-4-ylcarbonyl)octahydropyrrolo[3,4-c]pyrrole], the Kb on human orexin 2 receptor [1] was 4 nM.
In the case of `Cc1cc(C)nc(N2CC3CN(C(=O)c4c(-n5nccn5)ccc5c4OCO5)CC3C2)n1` (stereo not shown) [Example 327, [5-(4,6-Dimethyl-pyrimidin-2-yl)-hexahydro-pyrrolo[3,4-c]pyrrol-2-yl]-(5-[1,2,3]triazol-2-yl-benzo[1,3]dioxol-4-yl)methanone], on human orexin 2 receptor [1], the Kb turned out to be 50 nM.
`Cc1cc(C)nc(N2CC3CN(C(=O)c4cccc5cccc(-n6nccn6)c45)CC3C2)n1` (stereo not shown) [Example 328, [5-(4,6-Dimethyl-pyrimidin-2-yl)-hexahydro-pyrrolo[3,4-c]pyrrol-2-yl]-(8-[1,2,3]triazol-2-yl-naphthalen-1-yl)-methanone]: on human orexin 2 receptor [1], the Kb is 40 nM.
Same read-out and setting: under `Cc1cc(C)nc(N2CC3CN(C(=O)c4cccc(F)c4-c4ccccn4)CC3C2)n1` (stereo not shown) [Example 367, (5-(4,6-Dimethylpyrimidin-2-yl)hexahydropyrrolo[3,4-c]pyrrol-2(1H)-yl)(3-fluoro-2-(pyridin-2-yl)phenyl)methanone] stands 3 nM; under `Cc1cccc(-c2c(F)cccc2C(=O)N2CC3CN(c4nc(C)cc(C)n4)CC3C2)n1` (stereo not shown) [Example 370, (5-(4,6-Dimethylpyrimidin-2-yl)hexahydropyrrolo[3,4-c]pyrrol-2(1H)-yl)(3-fluoro-2-(6-methylpyridin-2-yl)phenyl)methanone], 7 nM.
With `Cc1ccnc(-c2c(F)cccc2C(=O)N2CC3CN(c4nc(C)cc(C)n4)CC3C2)c1` (stereo not shown) [Example 373, (5-(4,6-Dimethylpyrimidin-2-yl)hexahydropyrrolo[3,4-c]pyrrol-2(1H)-yl)(3-fluoro-2-(4-methylpyridin-2-yl)phenyl)methanone], on human orexin 2 receptor [1], the Kb was determined as 5 nM.
For `Cc1ccc(-c2c(F)cccc2C(=O)N2CC3CN(c4nc(C)cc(C)n4)CC3C2)nc1` (stereo not shown) [Example 374, (5-(4,6-Dimethylpyrimidin-2-yl)hexahydropyrrolo[3,4-c]pyrrol-2(1H)-yl)(3-fluoro-2-(5-methylpyridin-2-yl)phenyl)methanone], the Kb at human orexin 2 receptor [1] turned out to be 12 nM.
The same measure, in the same setting: the result for `Cc1cc(C)nc(N2CC3CN(C(=O)c4cccc(F)c4-c4ncccc4F)CC3C2)n1` (stereo not shown) [Example 375, (5-(4,6-Dimethylpyrimidin-2-yl)hexahydropyrrolo[3,4-c]pyrrol-2(1H)-yl)(3-fluoro-2-(3-fluoropyridin-2-yl)phenyl)methanone] reads 4 nM.
Still for that read-out and setting: under `COc1ccc(C(=O)N2CC3CN(c4ncc(F)c(C)n4)CC3C2)c(-n2nccn2)c1` (stereo not shown) [Example 377, 2-(5-Fluoro-4-methylpyrimidin-2-yl)-5-{[4-methoxy-2-(2H-1,2,3-triazol-2-yl)phenyl]carbonyl}octahydropyrrolo[3,4-c]pyrrole] stands 2 nM; under `COc1ccc(C(=O)N2CC3CN(c4ncc(Cl)c(C)n4)CC3C2)c(-n2nccn2)c1` (stereo not shown) [Example 378, 2-(5-Chloro-4-methylpyrimidin-2-yl)-5-{[4-methoxy-2-(2H-1,2,3-triazol-2-yl)phenyl]carbonyl}octahydropyrrolo[3,4-c]pyrrole], 2 nM.
Still for that read-out and setting: the result for `COc1ccc(C(=O)N2CC3CN(c4nc(C)c(F)c(C)n4)CC3C2)c(-n2nccn2)c1` (stereo not shown) [Example 379, 2-(5-Fluoro-4,6-dimethylpyrimidin-2-yl)-5-{[4-methoxy-2-(2H-1,2,3-triazol-2-yl)phenyl]carbonyl}octahydropyrrolo[3,4-c]pyrrole] reads 5 nM; that for `COc1ccc(C(=O)N2CC3CN(c4ncc(C)c(C)n4)CC3C2)c(-n2nccn2)c1` (stereo not shown) [Example 380, 2-(4,5-Dimethylpyrimidin-2-yl)-5-{[4-methoxy-2-(2H-1,2,3-triazol-2-yl)phenyl]carbonyl}octahydropyrrolo[3,4-c]pyrrole], 5 nM.
For `CCc1c(C)nc(N2CC3CN(C(=O)c4ncccc4-n4nccn4)CC3C2)nc1C` (stereo not shown) [Example 385, 2-(5-Ethyl-4,6-dimethylpyrimidin-2-yl)-5-{[3-(2H-1,2,3-triazol-2-yl)pyridin-2-yl]carbonyl}octahydropyrrolo[3,4-c]pyrrole], the Kb on human orexin 2 receptor [1] came out at 8 nM.
On the same count and under the same terms, the result for `O=C(c1cccc(F)c1-c1ncccn1)N1CC2CN(c3cnc4cc(F)c(F)cc4n3)CC2C1` (stereo not shown) [Example 387, (5-(6,7-Difluoroquinoxalin-2-yl)hexahydropyrrolo[3,4-c]pyrrol-2(1H)-yl)(3-fluoro-2-(pyrimidin-2-yl)phenyl)methanone] reads 9 nM; that for `COc1ccc(C(=O)N2CC3CN(c4cnc5cc(F)c(F)cc5n4)CC3C2)c(-n2nccn2)c1` (stereo not shown) [Example 389, (5-(6,7-Difluoroquinoxalin-2-yl)hexahydropyrrolo[3,4-c]pyrrol-2(1H)-yl)(4-methoxy-2-(2H-1,2,3-triazol-2-yl)phenyl)methanone], 14 nM.
Consider `Cc1cc(C)nc(N2CC3CN(C(=O)c4ncccc4C(F)(F)F)CC3C2)n1` (stereo not shown) [Example 413, 2-(4,6-Dimethylpyrimidin-2-yl)-5-{[3-(trifluoromethyl)pyridin-2-yl]carbonyl}octahydropyrrolo[3,4-c]pyrrole], for which the pKi at human orexin 2 receptor [2] is 5.05.
Same read-out and setting: the result for `CCOc1ccc(C)nc1C(=O)N1CC2CN(c3nc(C)cc(C)n3)CC2C1` (stereo not shown) [Example 414, 2-(4,6-Dimethylpyrimidin-2-yl)-5-[(3-ethoxy-6-methylpyridin-2-yl)carbonyl]octahydropyrrolo[3,4-c]pyrrole] reads 6.05; that for `CCOc1ncccc1C(=O)N1CC2CN(c3nc(C)cc(C)n3)CC2C1` (stereo not shown) [Example 415, 2-(4,6-Dimethylpyrimidin-2-yl)-5-[(2-ethoxypyridin-3-yl)carbonyl]octahydropyrrolo[3,4-c]pyrrole], 6.48; that for `Cc1nc(N(C)C)cc(N2CC3CN(C(=O)c4cccc(F)c4-n4nccn4)CC3C2)n1` (stereo not shown) [Example 416, 6-[5-{[3-Fluoro-2-(2H-1,2,3-triazol-2-yl)phenyl]carbonyl}hexahydropyrrolo[3,4-c]pyrrol-2(1H)-yl]-N,N,2-trimethylpyrimidin-4-amine], 6.79.
Same read-out and setting: under `Cc1nc(N(C)C)cc(N2CC3CN(C(=O)c4ccc(F)cc4-n4nccn4)CC3C2)n1` (stereo not shown) [Example 417, 6-[5-{[4-Fluoro-2-(2H-1,2,3-triazol-2-yl)phenyl]carbonyl}hexahydropyrrolo[3,4-c]pyrrol-2(1H)-yl]-N,N,2-trimethylpyrimidin-4-amine] stands 7.21; under `Cc1nc(N(C)C)cc(N2CC3CN(C(=O)c4c(F)cccc4-n4nccn4)CC3C2)n1` (stereo not shown) [Example 418, 6-[5-{[2-Fluoro-6-(2H-1,2,3-triazol-2-yl)phenyl]carbonyl}hexahydropyrrolo[3,4-c]pyrrol-2(1H)-yl]-N,N,2-trimethylpyrimidin-4-amine], 7.26.
Consider `CCCOc1ccc(C)nc1C(=O)N1CC2CN(c3nc(C)cc(C)n3)CC2C1` (stereo not shown) [Example 419, 2-(4,6-Dimethylpyrimidin-2-yl)-5-[(6-methyl-3-propoxypyridin-2-yl)carbonyl]octahydropyrrolo[3,4-c]pyrrole], for which, on human orexin 2 receptor [2], the pKi is 5.97.
Still for that read-out and setting: the result for `CCOc1ccc(C)nc1C(=O)N1CC2CN(c3cc(N(C)C)nc(C)n3)CC2C1` (stereo not shown) [Example 420, 6-{5-[(3-Ethoxy-6-methylpyridin-2-yl)carbonyl]hexahydro-pyrrolo[3,4-c]pyrrol-2(1H)-yl}-N,N,2-trimethylpyrimidin-4-amine] reads 5.87; that for `Cc1cc(C)nc(N2CC3CN(C(=O)c4nc(C)ccc4-c4ncccn4)CC3C2)n1` (stereo not shown) [Example 421, 2-(4,6-Dimethylpyrimidin-2-yl)-5-[(6-methyl-3-pyrimidin-2-ylpyridin-2-yl)carbonyl]octahydropyrrolo[3,4-c]pyrrole], 6.97.
For the compound `Cc1cc(C)nc(N2CC3CN(C(=O)c4nc(C)ccc4-c4ncc(C)o4)CC3C2)n1` (stereo not shown) [Example 422, 2-(4,6-Dimethylpyrimidin-2-yl)-5-{[6-methyl-3-(5-methyl-1,3-oxazol-2-yl)pyridin-2-yl]carbonyl}octahydropyrrolo[3,4-c]pyrrole], the pKi on human orexin 2 receptor [2] is 5.98.
For the compound `COc1ccc(-n2nccn2)c(C(=O)N2CC3CN(c4cc(N(C)C)nc(C)n4)CC3C2)c1` (stereo not shown) [Example 423, 6-[5-{[5-Methoxy-2-(2H-1,2,3-triazol-2-yl)phenyl]carbonyl}hexahydropyrrolo[3,4-c]pyrrol-2(1H)-yl]-N,N,2-trimethylpyrimidin-4-amine], the pKi on human orexin 2 receptor [2] is 6.74.
Take `CCCOc1ccc(C)nc1C(=O)N1CC2CN(c3cc(N(C)C)nc(C)n3)CC2C1` (stereo not shown) [Example 424, N,N,2-Trimethyl-6-{5-[(6-methyl-3-propoxypyridin-2-yl)carbonyl]hexahydropyrrolo[3,4-c]pyrrol-2(1H)-yl}pyrimidin-4-amine]: the pKi at human orexin 2 receptor [2] is 5.94.
`Cc1nc(N(C)C)cc(N2CC3CN(C(=O)c4cc(F)ccc4-c4ncccn4)CC3C2)n1` (stereo not shown) [Example 425, 6-{5-[(5-Fluoro-2-pyrimidin-2-ylphenyl)carbonyl]hexahydropyrrolo[3,4-c]pyrrol-2(1H)-yl}-N,N,2-trimethylpyrimidin-4-amine]: the pKi at human orexin 2 receptor [2] was 7.07.
On the same count and under the same terms, under `Cc1nc(N(C)C)cc(N2CC3CN(C(=O)c4c(F)cccc4-c4ncccn4)CC3C2)n1` (stereo not shown) [Example 426, 6-{5-[(2-Fluoro-6-pyrimidin-2-ylphenyl)carbonyl]hexahydropyrrolo[3,4-c]pyrrol-2(1H)-yl}-N,N,2-trimethylpyrimidin-4-amine] stands 7.44; under `Cc1nc(N(C)C)cc(N2CC3CN(C(=O)c4cccc(F)c4-c4ncccn4)CC3C2)n1` (stereo not shown) [Example 427, 6-{5-[(3-Fluoro-2-pyrimidin-2-ylphenyl)carbonyl]hexahydropyrrolo[3,4-c]pyrrol-2(1H)-yl}-N, N,2-trimethylpyrimidin-4-amine], 7.10.
With `Cc1cc(C)nc(N2CC3CN(C(=O)c4cccc(F)c4-c4ccccn4)CC3C2)n1` (stereo not shown) [Example 472, (5-(4,6-dimethylpyrimidin-2-yl)hexahydropyrrolo[3,4-c]pyrrol-2(1H)-yl)(3-fluoro-2-(pyridin-2-yl)phenyl)methanone], the Kb at human orexin 2 receptor [1] amounted to 3 nM.
